Measurements reported in patent US11912694B1, “2-(benzo[d]oxazol-2-yl)-N′-(2-(5-(4-chlorophenyl)-1,3,4-oxadiazol-2-ylthio)acetoxy)acetimidamide as an antimicrobial compound” (KING FAISAL UNIVERSITY, priority 2023, dated 2024).

How the values were obtained:
[1] = test system: Pseudomonas aeruginosa; test: Agar plate disc-diffusion, antibacterial, Pseudomonas aeruginosa; assay type: cell-based; settings: nutrient agar, 37° C., 48 hours
Description: (§1) The agar plate disc-diffusion method was applied. Sterilized filter papers (6 mm in diameter) were wetted with 10 μL of a solution of 2-(benzo[d]oxazol-2-yl)-N′-(2-(5-(4-chlorophenyl)-1,3,4-oxadiazol-2-ylthio)acetoxy)acetimidamide (3) to be tested, […], and the discs were allowed to air dry. The discs were then placed onto the surface of agar plates (nutrient agar for bacteria and Sabouraud's dextrose agar for fungi) seeded with the test organism. Each plate contained 15 mL of the agar medium, previously seeded with 0.2 mL of the broth culture of each organism pregrown for 18 hours. The plates were incubated at 37° C. for 48 hours and 72 hours for fungi. The inhibition zones were measured in mm. Discs impregnated with DMSO were used as a control, and their inhibition zone was subtracted from the tested compound's actual inhibition zone.

[2] = test system: Staphylococcus aureus; test: Agar plate disc-diffusion, antibacterial, Staphylococcus aureus; assay type: cell-based; settings: nutrient agar, 37° C., 48 hours
Description: as §1

[3] = test system: Chrysosporium keratinophilum; test: Agar plate disc-diffusion, antifungal, Chrysosporium keratinophilum; assay type: cell-based; settings: Sabouraud's dextrose agar, 37° C., 72 hours
Description: as §1

[4] = test system: Bacillus cereus; test: Agar plate disc-diffusion, antibacterial, Bacillus cereus; assay type: cell-based; settings: nutrient agar, 37° C., 48 hours
Description: as §1

[5] = test system: Escherichia coli; test: Agar plate disc-diffusion, antibacterial, Escherichia coli; assay type: cell-based; settings: nutrient agar, 37° C., 48 hours
Description: as §1

[6] = test system: Aspergillus flavus; test: Agar plate disc-diffusion, antifungal, Aspergillus flavus; assay type: cell-based; settings: Sabouraud's dextrose agar, 37° C., 72 hours
Description: as §1

[7] = A = concentration of comp. = 10,000 μg/mL
[8] = B = concentration of comp. = 30,000 μL
[9] = C = concentration of comp. = 50,000 μL
[10] = A = concentration of comp. = 10,000 μL
[11] = A = concentration of comp. = 10 mg/mL

Row | Structure (SMILES) | inhibition zone [1, 7] | inhibition zone [1, 8] | inhibition zone [1, 9] | inhibition zone [2, 10] | inhibition zone [2, 8] | inhibition zone [2, 9] | inhibition zone [3, 11] | inhibition zone [3, 8] | inhibition zone [3, 9] | inhibition zone [4, 10] | inhibition zone [4, 8] | inhibition zone [4, 9] | inhibition zone [5, 7] | inhibition zone [5, 8] | inhibition zone [5, 9] | inhibition zone [6, 10] | inhibition zone [6, 8] | inhibition zone [6, 9] | melting point
1 | O=C(O)c1cn(C2CC2)c2cc(N3CCNCC3)c(F)cc2c1=O [Cip., ciprofloxacin, reference compound] | 29 mm | 30 mm | 53 mm | 43 mm | 44 mm | 53 mm | 29 mm | 30 mm | 53 mm | 29 mm | 30 mm | 42 mm | 30 mm | 39 mm | 60 mm | 29 mm | 30 mm | 42 mm | –
2 | N/C(Cc1nc2ccccc2o1)=N\OC(=O)CSc1nnc(-c2ccc(Cl)cc2)o1 [Compound 3, 2-(benzo[d]oxazol-2-yl)-N′-(2-(5-(4-chlorophenyl)-1,3,4-oxadiazol-2-ylthio)acetoxy)acetimidamide] | 24 mm | 29 mm | 36 mm | 27 mm | 35 mm | 42 mm | 28 mm | 35 mm | 47 mm | 27 mm | 30 mm | 41 mm | 28 mm | 37 mm | 49 mm | 25 mm | 30 mm | 41 mm | 162 to 163 °C
